The values below come from patent publication US10792384B2, “Rolled fibrous structures comprising encapsulated malodor reduction compositions” (The Procter & Gamble Company, priority 2017, dated 2020).

Each structure is given as a SMILES string.

This experiment in a line: Blocker Index (BI), expert graders smelling isovaleric acid swatches treated with test material. As to conditions: test material 50 ppm on swatch with 20 μL 0.08% isovaleric acid, scale 0-3. An excerpt: Blocker materials suitable for use in consumer products of the present invention are chosen for their ability to decrease malodor, while not interfering with perception of a fragrance. Material selection is done by assigning two indices to a test sample material from two reference scales in order to rank odor strengths. The two reference scales are the Fragrance Fidelity Index (FFI) scale and the Blocker Index (BI) scale. The FFI ranks the ability of the test sample material to impart a perceivable odor which could cause interference when combined with another fragrance and the BI ranks the ability of the test sample material to reduce malodor perception. The two methods for assigning the indices to a test sample on the FFI and the BI reference scales are given below.
The first step in the method for assigning a BI to a test sample material on the BI reference scale is to create the BI reference swatches. […] Fabric swatches for this test are white knit polycotton (4 inch×4 inch) swatches from EMC ordered as PC 50/50. The supplier is instructed to strip the swatches first, stripping involves washing twice with a fragrance-free detergent and rinsing three times.
The BI scale contains one clean swatch with no malodor applied. […] These solutions are pipetted to the middle of the swatches. […]

In turn, `C=C/C(C)=C\CC=C(C)C` [Material 524] registered a BI of 2.8.
